From patent US8981149B2, “Compounds modulating the hedgehog protein signaling pathway, marked forms thereof, and applications” (Centre National De La Recherche Scientifique, priority 2011, dated 2015)
Read-outs that look alike come from different tables or passages of the source.

System: C3H10T1/2 cells
Assay: Differentiation of C3H10T1/2 cells induced by SAG, alkaline phosphatase (AP) activity
Assay type: cell-based, mouse
Conditions: Mus musculus, C3H 10T1/2
Experimental: The test compounds of formula (I) were dissolved in dimethylsulfoxide up to a concentration of 10 mM, then stored at a temperature of −20° C. until used.
The line of C3H10T1/2 pluripotent fibroblast cells (ATCC) was cultured in the conditions recommended by the ATCC. These cells were activated using 0.1 μM of SAG according to the methods described by Chen et al., Proc. Natl. Acad. Sci. USA, 2002, 99, 14071 and Frank-Kamenetsky et al., J. Biol., 2002, 1, 10.
Activation by SAG causes differentiation of the cell line and allows it to express alkaline phosphatase (AP). It was thus possible to measure the activity of the Hedgehog protein signalling pathway via measurement of the alkaline phosphatase (AP) activity.
The C3H10T1/2 cells were seeded on 96-well plates at a density of 5.10^3 cells per well, 24 hours before adding the test compounds at a concentration varying from 1 nM to 30 μM and in the presence of 0.1 μM of SAG, using DMEM (Dulbecco's Modified Eagle's Medium) with 10% fetal calf serum as culture medium. The tests were carried out in quadruplicate. The plates were then incubated for 5 to 6 days at a temperature of 37° C. under 5% CO2 atmosphere. The cells were then washed in cold phosphate buffer (“Phosphate Buffer Serum”: PBS), then lysed by sonication at 4° C. in 50 μL of a solution containing 0.9% of NaCl and 0.2% of Triton X-100.
Measurement of the alkaline phosphatase (AP) activity in the lysates thus obtained was then performed according to the method described by Pepinsky et al. (J. Biol. Chem., 1998, 273, 14037). After adding 100 μL of reaction buffer (200 mM Tris-HCl; pH 10.5; 0.4 M of 2-amino-2-methylpropanol and 8 mM of MgCl2) and 50 μL of substrate (4 mM of p-nitrophenyl disodium phosphate), the lysates were incubated at 37° C. for 30-60 min, then the optical density was read at a wavelength of 415 nm.

Measured: IC50

COc1cc(C(=O)NC(=N)Nc2ccc(C)c(NC(=O)c3ccc(CCc4ccccc4)cc3)c2)cc(OC)c1OC.Cl [Compound 7d, 3,4,5-trimethoxy-N—(N-(4-methyl-3-(4-phenethylbenzamido)phenyl)carbamimidoyl)benzamide hydrochloride]
6 ± 1 nM: AP activity, differentiation induced by SAG (0.1 μM), read-out: IC50 ± SEM, C3H10T1/2 cells (2) | SAG 0.1 μM, Mean ± SEM, n ≧ 3, read-out: IC50, differentiation of C3H10T1/2 cells | after induction by SAG at 0.1 μM, read-out: IC50, inhibition of alkaline phosphatase (AP) activity, differentiation of C3H10T1/2 cells
